Article PMC5716993, “The interdomain flexible linker of the polypeptide GalNAc transferases dictates their long-range glycosylation preferences” (Nature Communications, 2017)
Entries after “also recorded” stand apart in the source; their conditions may differ.

Experiments:
[1] = target: T1, GalNAc-T2 (triple mutant, R438A-D444A-F447A) (Homo sapiens, UniProt Q10471, D444A/F447A/R438A); test: Transferase assay / Michaelis-Menten kinetics of GalNAc-T2 triple mutant; type: biochemical; conditions: for Vmax / Km: Triple Mutant (0.02 µM), pH 6.5 cacodylate, 37 °C, 0.25 mM UDP-[3H]-GalNAc, Michaelis-Menten fit, ± standard deviation; for Vmax: 10 mM MnCl2; for Catalytic efficiency (Vmax/Km): Triple Mutant, errors estimated from the largest percent error of Vmax or Km
T1 construct: the previous reported template pPICZαAgalnact2 (K75-Q571); made in house; host or cells: Pichia pastoris SMD1168 (pPICZαA)
T1 sequence (Q10471 75-571 R438A/D444A/F447A): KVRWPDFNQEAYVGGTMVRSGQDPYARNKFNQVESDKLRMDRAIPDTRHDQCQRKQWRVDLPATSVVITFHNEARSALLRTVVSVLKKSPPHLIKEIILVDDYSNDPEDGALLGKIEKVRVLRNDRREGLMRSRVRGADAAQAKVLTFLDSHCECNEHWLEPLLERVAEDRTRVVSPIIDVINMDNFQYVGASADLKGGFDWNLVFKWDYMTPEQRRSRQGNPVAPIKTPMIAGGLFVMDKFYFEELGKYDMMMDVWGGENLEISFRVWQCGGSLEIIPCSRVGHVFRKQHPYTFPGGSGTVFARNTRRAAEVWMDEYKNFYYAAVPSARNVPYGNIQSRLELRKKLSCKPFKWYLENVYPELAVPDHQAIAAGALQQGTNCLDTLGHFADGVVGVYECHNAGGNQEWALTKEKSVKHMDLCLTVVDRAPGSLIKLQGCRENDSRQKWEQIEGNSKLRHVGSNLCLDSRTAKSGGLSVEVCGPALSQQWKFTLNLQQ
Description: Specific activity determinations: GalNAc-T glycosylation reactions against (glyco)peptides 1–3 were performed with 75 mM sodium cacodylate, pH 6.5, 1 mM 2-mercaptoethanol, 10 mM MnCl2, 0.25 mM [^3H]-radiolabeled UDP-GalNAc (~6 × 10^8 DPM/µmole, American Radiolabeled Chemicals Inc.), and 1.4 mM (~1.25 mg/ml) of (glyco)peptide (from 4 mM stock in 1 mM TRIS, pH ~7) and varying concentrations (0.01 to 0.5 µM) of transferase (determined by OD280), giving a final reaction volumes of 20 µl in 100 µl capped Eppendorf tubes. Reactions were incubated at 37 °C in a thermostated microplate shaker (Taitec Microincubator M-36) and quenched at the appropriate reaction time by the addition of 20 µl of 250 mM EDTA and placed on ice prior to final workup. Typically, for each transferase, glycosylation reactions were performed at the same time with all three (glyco)peptide substrates (including a no peptide control) using the same batch of transferase and the same UDP-[^3H]-GalNAc stock. Before performing time course experiments, the relative activity of each transferase was determined by trial and error against all three peptides to determine the optimal transferase concentration or incubation time that gave no more than 10% peptide glycosylation against the best substrate. Final time course experiments typically consisted of incubation times of 10, 20, and 30, or 30, 60, and 90 or 120 min (depending on activity) and were performed at least twice. Most transferases were also characterized at two different enzyme concentrations (0.01–0.03 and 0.2–0.5 µM) and the results combined. After quenching the reaction and diluting to 4 ml, free UDP and non-hydrolyzed UDP-GalNAc were removed by passage over a Dowex 1 × 8 anion exchange resin (~3 ml column). Total UDP-[^3H]-GalNAc utilization (transfer to peptide substrate and transfer to water, i.e, hydrolysis) was determined by difference after scintillation counting (Beckman LS5801 scintillation counter) 1/20 of the sample before and after passage over Dowex 1 × 8. The extent of [^3H]-GalNAc transfer to peptide and the extent of hydrolysis was determined by Sephadex G10 gel filtration analysis, typically for the longest reaction time point, as previously described. Example gel filtration chromatograms are given in Supplementary Fig. 12. Significant hydrolysis was only observed for GalNAc-T4, which was corrected for in determining its specific activity. Specific activity was obtained by calculating at each individual data time point (of the combined time course plots, Fig. 4b), an individual-specific activity, which was then averaged to obtain the overall average specific activity (and standard deviation). Specific activity is reported as nmol of glycopeptide product formed per min, per pmol of enzyme. Substrate activity ratios (i.e., substrate ratios 2/1, 3/1, and 3/2) were also obtained at each individual time point and averaged (with standard deviation). […] Note that the Microsoft Excel least squares fitting function LINEST was used to obtain the linear plots shown in Fig. 4b while fixing the y intercept to zero. Note that the specific activity calculated from the least square slope differed slightly (less than 10%) from that determined from the average of the individual time points.
Detailed enzyme kinetics on GalNAc-T4, GalNAc-T2, the GalNAc-T2 triple mutant and GalNAc-T2 chimera 3: Glycosylation reactions were performed as described above using a fixed enzyme concentration (0.06 µM for GalNAc-T4, and 0.02 µM for GalNAc-T2 and its linker constructs) with varying peptide concentrations (typically 45, 90, 180, 350, 700, 1400, and 2000 μM). Incubation times (10–90 min) were chosen such that no more than 30% of the UDP-GalNAc donor was depleted while typically giving less than 10% peptide glycosylation, after correction for UDP-GalNAc hydrolysis described above. Specific activities were obtained from one to two individual incubation time points performed in two–three separate experiments. […]

GalNAc-T2 chimeras 1–3 = test: Specific activity / glycosylation preference of GalNAc-T2 chimeras 1-3; type: biochemical; conditions: in words
Description: (§1) Specific activity determinations: GalNAc-T glycosylation reactions against (glyco)peptides 1–3 were performed with 75 mM sodium cacodylate, pH 6.5, 1 mM 2-mercaptoethanol, 10 mM MnCl2, 0.25 mM [^3H]-radiolabeled UDP-GalNAc (~6 × 10^8 DPM/µmole, American Radiolabeled Chemicals Inc.), and 1.4 mM (~1.25 mg/ml) of (glyco)peptide (from 4 mM stock in 1 mM TRIS, pH ~7) and varying concentrations (0.01 to 0.5 µM) of transferase (determined by OD280), giving a final reaction volumes of 20 µl in 100 µl capped Eppendorf tubes. […] Before performing time course experiments, the relative activity of each transferase was determined by trial and error against all three peptides to determine the optimal transferase concentration or incubation time that gave no more than 10% peptide glycosylation against the best substrate. […] Total UDP-[^3H]-GalNAc utilization (transfer to peptide substrate and transfer to water, i.e, hydrolysis) was determined by difference after scintillation counting (Beckman LS5801 scintillation counter) 1/20 of the sample before and after passage over Dowex 1 × 8. The extent of [^3H]-GalNAc transfer to peptide and the extent of hydrolysis was determined by Sephadex G10 gel filtration analysis, typically for the longest reaction time point, as previously described. […]

GalNAc-T4 = target: T2, GalNAc-T4 (Homo sapiens, UniProt Q8N4A0); test: Surface plasmon resonance; type: binding; conditions: SPR; peptide 0.01–5 mM; 25 °C, pH 7.5, 100 µM UDP, 4 mM MnCl2; in words
T2 construct: amino acid residues 36–578 of the human GalNAc-T4; histidine tag (C); made in house; host or cells: Pichia pastoris SMD1168 (pPICZαA, secreted)
T2 sequence (Q8N4A0 36-578): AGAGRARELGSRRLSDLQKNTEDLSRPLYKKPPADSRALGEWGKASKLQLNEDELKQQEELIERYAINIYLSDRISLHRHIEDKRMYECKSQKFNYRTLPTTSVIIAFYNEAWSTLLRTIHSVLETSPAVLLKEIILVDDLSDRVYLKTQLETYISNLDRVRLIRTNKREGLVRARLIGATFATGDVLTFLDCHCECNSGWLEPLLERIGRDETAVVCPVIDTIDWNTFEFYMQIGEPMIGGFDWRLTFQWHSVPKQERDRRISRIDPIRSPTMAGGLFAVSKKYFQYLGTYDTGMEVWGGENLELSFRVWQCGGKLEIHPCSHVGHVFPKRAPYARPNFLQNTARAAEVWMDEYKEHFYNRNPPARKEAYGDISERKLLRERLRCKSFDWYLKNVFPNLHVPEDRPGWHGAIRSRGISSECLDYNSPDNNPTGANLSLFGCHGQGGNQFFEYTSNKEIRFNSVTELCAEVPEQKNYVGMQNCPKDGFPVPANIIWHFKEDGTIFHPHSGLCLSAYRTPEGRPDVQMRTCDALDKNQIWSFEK
Description: SPR experiments were performed at 25 °C with a Biacore X-100 apparatus (Biacore AB) in 25 mM Tris buffer, 1 mM DTT, 4 mM MnCl2, 100 µM UDP, 0.01% surfactant P20, pH 7.5 (running buffer) at 25 °C. Flow cells (CM5 sensor chip; Biacore) were activated for 7 min by injecting 140 µl of 50 mM N-hydroxysuccinimide (NHS): 200 mM ethyl-3(3dimethylamino) propylcarbodiimide (EDC). GalNAc-T4 was immobilized on a flow cell 2 by injection of a 100 µg/ml protein solution diluted with 10 mM sodium acetate buffer with a flow rate of 10 µl/min for 7 min followed by an injection of 130 µl ethanolamine to block any remaining activated groups on the surface. The level of immobilization reached was about 8000 RU. Flow cell 1, used as reference, was blocked with ethanolamine at the same conditions of flow cell 2 without immobilization of protein. Affinity experiments were made using a series of different concentrations of peptide 3 in the range of 0.01–5 mM with a flow rate of 30 µl/min during 100 s. Each injection was followed by a 100 s injection of running buffer (dissociation phase). No regeneration steps were performed between injections. Response data were collected at real time and analyzed with the Biacore® X-100 Evaluation software and plotted as response shift versus analyte concentration.

[2] = test system: GalNAc-T2 chimera 1 and 2; test: Specific activity of GalNAc-T2 chimera 1 and 2; type: biochemical; conditions: 1.4 mM, in words
Description: as §1

| Substance | Vmax [1] | Km [1] [µM] | Catalytic efficiency (Vmax/Km) [1] [nmol/min] | specific activity and kinetic parameters against monoglycopeptide 3, change (GalNAc-T2 chimeras 1–3) | Kd determinability / binding saturation (GalNAc-T4) | change in kinetic parameters against monoglycopeptide 2 ([1]; triple mutant, in words) | specific activity against monoglycopeptide 2, change [2] |
| --- | --- | --- | --- | --- | --- | --- | --- |
| GAT*GAGAGAGTTPGPG [Peptide 3, monoglycopeptide GAT*…, T* denotes the Thr-O-GalNAc moiety] | 2.82 ± 0.10 mM/(nmole*min) | 570 ± 50 | 4.94 ± 0.9 | remained relative constant | binding saturation could not be achieved; also recorded: binding saturation was not achieved | – | – |
| AGAGTTPGPGAGAT*GA [Peptide 2, monoglycopeptide …*GA, T* denotes the Thr-O-GalNAc moiety] | 1.80 ± 0.06 mM/(nmole*min) | 400 ± 40 | 4.54 ± 0.9 | – | – | decrease in Vmax and increase in Km | decrease in the observed specific activity |
